Reference: patent US6455555B1, “Anti-HIV infection agents and method for treating HIV infection” (Kabushiki Kaisha Hayashibara Seibutsu Kagaku Kenkyujo, priority 2001, dated 2002)
“Also recorded” adds a separate entry of the source. Read-outs that look alike come from different tables or passages of the source.

Experiments:
[1] = tested on: HIV (HTLV-IIIB); assay: microbe, parasite or virus in culture; type: cell-based; settings: for suppression of HIV replication (in words): at the tested concentrations (20-500 μM)
Experimental: To examine the effect on HIV infected cell, MT-4 cells (number of cells at the start of culture 1×10^4/well), that underwent anti-HIV assay, were infected with an HIV (HTLV-IIIB, 200 CCID50/well), cultured at 37° C. for 4 days, and determined for the inhibitory effect on HIV replication, according to the method by Pauels, R. et al., in J. Virol. Methods, 16, 171-185 (1987). Suramin was used as a control.

[2] = cited from earlier work
[3] = tested on: patient suffering from ARC (HIV infection); assay: Clinical Experiment 1: formulation 1 tablets with active ingredient A given to one ARC patient; type: in vivo, human
Experimental: (§1) The clinical experiments using the agent for anti-HIV infection of the present invention are explained in the following. The clinical experiments described below were conducted in Thailand without informing the patients of the compound names, chemical structures, etc. of the photosensitizing dyes used as the active ingredient.
The agent for anti-HIV infection of the present invention was administered to a patient suffering from ARC. They had been diagnosed with HIV infection five years before and received administration of AZT/ddI/RTV for 14 months.
His bronchial asthma, a symptom of ARC, was also cured.

[4] = tested on: patients suffering from ARC or AIDS (HIV infection); assay: Clinical Experiment 2: formulation 1 tablets with active ingredient A given to seven patients with ARC or AIDS; type: in vivo, human
Experimental: as §1
Seven patients suffering from ARC or AIDS were given the agent for anti-HIV infection of the present invention of formulation 1 containing the active ingredient A. Their medical history before treatment was as follows:
Along therewith, their appetite increased, rash, one of the symptoms of ARC, decreased, hemorrhoid was cured, and insomnia was ameliorated.

[5] = 20 μM, MT-4 cells, HTLV-IIIB 200 CCID50/well, 4 days at 37° C.
[6] = 100 μM, MT-4 cells, HTLV-IIIB 200 CCID50/well, 4 days at 37° C.
[7] = 500 μM, MT-4 cells, HTLV-IIIB 200 CCID50/well, 4 days at 37° C.
[8] = after a further 16 weeks, daily dose 1000 μg, following 8 weeks at 500 μg
[9] = 8 weeks, 500 μg/day, one patient per line

## CCN1C=CC(=CC=C(C=Cc2cc[n+](CC)c3ccccc23)c2cc[n+](CC)c3ccccc23)c2ccccc21.[I-].[I-] [Active ingredient A]
[1]; [5]
  Inhibition (%) of HIV replication: 1%
[1]; [6]
  Inhibition (%) of HIV replication: 2%
[1]; [7]
  Inhibition (%) of HIV replication: 1%
[1]; listed as active ingredients A
  suppression of HIV replication (in words): no anti-virus activity to suppress reproduction of HIV; also recorded: did not suppress the replication of HIV
[2]; oral administration at 4 g/kg
  side effects such as toxic state: does not cause any side effects
[3]; after 8 weeks, daily dose 500 μg
  other improvement (in words): increased appetite and increased pectoral muscle
[3]; after 8 weeks, daily dose 500 μg, 55.6 kg before administration
  body weight: 56.9 kg
[3]; after 8 weeks, daily dose 500 μg, 121/mm^3 before administration, person
  CD4 count: 181 /mm^3
[3]; after a further 16 weeks, daily dose 1000 μg
  bronchial asthma, a symptom of ARC: cured
[3]; [8]
  CD4 count: 192 /mm^3
  body weight: 57.1 kg
[4]; [9]
  Improvement (Symptoms of ARC etc.): Increased appetite; also recorded: Amelioration of insomnia; also recorded: Cure of hemorrhoids; also recorded: Decrease of rash
  Side effects: None
[4]; HIV-infected patients
  overall clinical effect (in words): most of the patients showed an increase in the CD4 count and in the body weight

## CCCCCCCN1C(C)=CSC1=CC=C(C=Cc1scc(C)[n+]1CCCCCCC)c1scc(C)[n+]1CCCCCCC.[I-].[I-] [Active ingredient B]
[1]; [5]
  Inhibition (%) of HIV replication: 2%
[1]; [6]
  Inhibition (%) of HIV replication: 1%
[1]; [7]
  Inhibition (%) of HIV replication: 2%
[1]
  suppression of HIV replication (in words): no anti-virus activity to suppress reproduction of HIV; also recorded: did not suppress the replication of HIV
[2]; intraperitoneal administration
  LD50: 54 mg/kg
[2]; oral administration
  LD50: 1500 mg/kg

## Cc1ccc(C(=O)Nc2ccc(S(=O)(=O)O)c3cc(S(=O)(=O)O)cc(S(=O)(=O)O)c23)cc1NC(=O)c1cccc(NC(=O)Nc2cccc(C(=O)Nc3cc(C(=O)Nc4ccc(S(=O)(=O)O)c5cc(S(=O)(=O)O)cc(S(=O)(=O)O)c45)ccc3C)c2)c1 [Suramin, reference compound]
[1]; Human immunodeficiency virus 1, MT4, 96 h, 0.8 μM, MT-4 cells, HTLV-IIIB 200 CCID50/well, 4 days at 37° C., read-out: Inhibition (%) of HIV replication
  inhibition at 0.8 µM: 2%
[1]; Human immunodeficiency virus 1, MT4, 96 h, 4 μM, MT-4 cells, HTLV-IIIB 200 CCID50/well, 4 days at 37° C., read-out: Inhibition (%) of HIV replication
  inhibition at 4 µM: 10%
[1]; Human immunodeficiency virus 1, MT4, 96 h, 20 μM, MT-4 cells, HTLV-IIIB 200 CCID50/well, 4 days at 37° C., read-out: Inhibition (%) of HIV replication
  inhibition at 20 µM: 100%
[1]; Human immunodeficiency virus 1, MT4, 96 h, 100 μM, MT-4 cells, HTLV-IIIB 200 CCID50/well, 4 days at 37° C., read-out: Inhibition (%) of HIV replication
  inhibition at 100 µM: 100%
